Source: ChEMBL document CHEMBL1157332, “Neuroprotective bibenzyl glycosides of Stemona tuberosa roots” (2006)

Columns and labels:
SH-SY5Y [1] = assay: Neuroprotective effect against 6-OHDA-induced neurotoxicity in human SH-SY5Y cells at 0.1 uM treated 1 hr before 6-OHDA injury after 24 hrs by MTT assay relative to control; format: functional
SH-SY5Y [2] = assay: Neuroprotective effect against 6-OHDA-induced neurotoxicity in human SH-SY5Y cells at 1 uM treated 1 hr before 6-OHDA injury after 24 hrs by MTT assay relative to control; format: functional

| SMILES | Activity (SH-SY5Y [1]) [%] | Activity (SH-SY5Y [2]) [%] |
| --- | --- | --- |
| Cc1c(O)cc(CCc2ccccc2)cc1O[C@@H]1O[C@H](CO)[C@@H](O)[C@H](O)[C@H]1O | 50.9 | 72.4 |
| COc1cc(OC)cc(C(O[C@@H]2O[C@H](CO)[C@@H](O)[C@H](O)[C@H]2O)C(O)c2ccccc2)c1 (stereo partly drawn) | 29.5 | 97.3 |
| COc1ccc(CCc2cc(O)c(C)c(O[C@@H]3O[C@H](CO)[C@@H](O)[C@H](O)[C@H]3O)c2)cc1 | 31 | 65.6 |
| O=C(O[C@@H]1Cc2c(O)cc(O)cc2O[C@@H]1c1cc(O)c(O)c(O)c1)c1cc(O)c(O)c(O)c1 [EPIGALOCATECHIN GALLATE] | 20.1 | 42.2 |
